Data taken from patent publication US10450314B2, “Pteridine derivatives as modulators of ROR gamma” (Boehringer Ingelheim International GmbH, priority 2015, dated 2019).

Experiments:
RORγ = biological target: T1, RORγ (Homo sapiens, UniProt P51449); assay: RORγ Reporter Gene Assay (RGA), luciferase transactivation in transiently transfected HEK 293 cells; type: cell-based; details: HEK 293 cells cotransfected with pGL4.3 luc2P/GAL4UAS and pBIND Gal4DBD hRORC LBD; 20-24 h incubation
T1 construct: expressed in transfected cells; host or cells: HEK 293 cells, transiently cotransfected with pGL4.3 luc2P/GAL4UAS/Hygro reporter
T1 sequence (P51449 269-508 limits assumed): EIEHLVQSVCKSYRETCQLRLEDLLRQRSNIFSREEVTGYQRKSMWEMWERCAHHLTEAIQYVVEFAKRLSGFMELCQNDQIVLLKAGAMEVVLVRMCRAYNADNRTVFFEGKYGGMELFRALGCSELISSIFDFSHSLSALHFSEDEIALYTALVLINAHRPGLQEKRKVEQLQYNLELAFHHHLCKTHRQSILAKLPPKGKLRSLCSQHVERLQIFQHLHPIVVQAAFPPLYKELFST
Method: Reporter Gene Assay (RGA)
A nuclear receptor transactivation assay is performed to quantitate the ability of test compounds to inhibit RORγ transactivation of a luciferase reporter. A similar assay is described in: Khan et al., Bioorganic & Medicinal Chemistry Letters 23 (2013), 532-536. The system uses transiently transfected HEK 293 cells cotransfected with two plasmids (pGL4.3, luc2P/GAL4UAS/Hygro, and pBIND, Gal4DBD hRORC LBD1-3). The positive control is co-transiently transfected with both plasmids, and the negative control contains the pGL4.3 promoter sequence. Assays are assembled in 384 well plates where transiently transfected cells and test compound at varying concentrations are incubated for 20-24 h. The next day, assays plates are taken out and equilibrated at RT for 20-30 minutes. Bright-Glo™ Luciferase Assay System is used to detect Luciferase production. After addition of Bright GLO detection reagent, the plates are incubated at RT for 20 minutes. The plates are read on an Envision plate reader to measure luminescence signal. The RLU signal is converted to POC relative to control and blank wells.
Compound Dilution Buffer:
Bright Glo Luciferase Assay System: Promega #E2620
Thaw lysis buffer provided in kit, add 100 mL lysis buffer to substrate powder.

[1] = Human liver microsome (HLM) metabolic stability assay; type: in vitro ADME; details: human liver microsomes, 1 uM compound, 37° C., 60 min; % hepatic blood flow
Method: Assessment of Metabolic Stability
The 5 time point, high-throughput human liver microsome (HLM) metabolic stability assay is designed to determine in vitro compound metabolism. Compounds are incubated with HLMs at a concentration of 1 uM, at 37° C., for a total of 60 min. The percent of compound remaining at 5, 15, 30, and 60 min is used to calculate the t1/2 (min), CLint (mL/min/kg), CLh (mL/min/kg), and % Qh. The assay is based on a 96-well format and can accommodate up to 92 compounds per plate (n=1).
Using the 96-well multi-channel head, the Biomek FX, equipped with a Peltier heating block/shaker, is programmed to accomplish the following steps: • 1. Pipette 175 uL of 1.15 mg/mL microsomes into each of the 96 conical inserts (Analytical Sales and Products, catalog number 96PL05) that fit into the plate of the Peltier heating block/shaker (the incubation plate) • 2. Add 5 uL of compounds from the assay plate to the microsomes and shake the mixture at 600 rpm at 42.1° C. for 10 min (a setting of 42.1° C. on the Peltier is required for the samples to incubate at 37° C.) • 3. After 10 min, prompt the user to add the NADPH plate to the deck and add 20 uL from the NADPH plate to the incubation plate to start the reaction • 4. Add 215 uL of 100%, cold acetonitrile containing an internal standard(s) to a 0 minute, 5 minute, 15 minute, 30 minute, and 60 minute “quench” plate • 5. At 0 min, 5 min, 15 min, 30 min, and 60 min into the incubation, aspirate 12 uL from the incubation mixture and add it to the quench solution to stop the reaction • 6. Add 185 uL HPLC grade water to each well of the 0, 5, 15, 30 and 60 minute quench plates to dilute compounds to the appropriate concentration for the mass spectrometer
After all time points are collected, the quench plates are sealed with 96-well pierceable plate mats or heat sealing foil and centrifuged at 3000 rpm for 15 min to pellet the microsomes.
The plates are analyzed using LC/MS/MS with electron spray ionization (ESI) and the previously determined MRM transitions. The LC method includes the following parameters:
Using an Excel template in Activitybase, the peak areas corresponding to 5, 15, 30 and 60 min are compared to the peak area at 0 min to calculate the percent of remaining compound using the following equation:
Percent compound remaining=(AUC at Time t min/AUC at Time 0 min)×100 where t=0, 5, 15, 30 or 60 min.
Time (min) is plotted against the natural logarithm (Ln) of the percent compound remaining to determine the slope. The slope is used to calculate t1/2 (min) using the equation, t1/2=0.693/slope.
Clint, Intrinsic Clearance

CC[C@@H](C)n1c(=O)c(NCc2ccc(S(=O)(=O)CC)cn2)nc2c(CO)nc(-c3c(C)ncnc3C3CC3)nc21 [Example 51]
IC50 (RORγ): 230 nM
HLM (% Qh) [1]: <24 % Qh

CC[C@@H](C)n1c(=O)c(NCC2CCN(S(C)(=O)=O)CC2)nc2c(C)nc(-c3c(C)ncnc3C3CC3)nc21 [Example 59]
IC50 (RORγ): 98 nM
HLM (% Qh) [1]: 78 % Qh

Cc1ncnc(C2CC2)c1-c1nc(C)c2nc(NCc3ccc(S(C)(=N)=O)cc3)c(=O)n([C@@H](C)C(F)(F)F)c2n1 (single isomer, unassigned) [Example 91b]
IC50 (RORγ): 255 nM
HLM (% Qh) [1]: <24 % Qh

CCS(=O)(=O)c1ccc(CNc2nc3c(C)nc(-c4c(C)ncnc4C4CC4)nc3n([C@@H](C)CF)c2=O)nc1 [Example 48]
IC50 (RORγ): 1200 nM
HLM (% Qh) [1]: <24 % Qh

CC[C@@H](C)n1c(=O)c(NCc2ccc(S(C)(=O)=O)cn2)nc2c(C)nc(-c3c(OC)ncnc3C3CC3)nc21 [Example 2]
IC50 (RORγ): 110 nM
HLM (% Qh) [1]: <24 % Qh

CC[C@@H](C)n1c(=O)c(NCc2ccc(S(=N)(=O)CC)cc2)nc2c(C)nc(-c3c(C)ncnc3C3CC3)nc21 (single isomer, unassigned) [Example 26b]
IC50 (RORγ): 170 nM
HLM (% Qh) [1]: 25 % Qh

CCS(=O)(=O)c1ccc(CNc2nc3c(C)nc(-c4c(OC)ncnc4C4CC4)nc3n([C@@H](C)C3CC3)c2=O)nc1 [Example 71]
IC50 (RORγ): 65 nM
HLM (% Qh) [1]: 35 % Qh

COc1ncnc(C2CC2)c1-c1nc(C)c2nc(NCc3ccc(S(C)(=O)=O)nc3)c(=O)n([C@@H](C)C(F)(F)F)c2n1 [Example 19]
IC50 (RORγ): 165 nM
HLM (% Qh) [1]: 62 % Qh

CCS(=O)(=O)c1ccc(CNc2nc3c(C)nc(-c4c(OC)ncnc4C4CC4)nc3n([C@@H](C)C(F)(F)F)c2=O)nc1 [Example 88]
IC50 (RORγ): 102 nM
HLM (% Qh) [1]: 38 % Qh

COc1ncnc(C2CC2)c1-c1nc(C)c2nc(NCc3ccc(S(C)(=O)=O)cn3)c(=O)n([C@@H](C)C(F)(F)F)c2n1 [Example 17]
IC50 (RORγ): 130 nM
HLM (% Qh) [1]: 39 % Qh

CCS(=O)(=O)c1ccc(CNc2nc3c(C)nc(-c4c(C)ncnc4C4CC4)nc3n([C@@H](C)C3CC3)c2=O)cn1 [Example 74]
IC50 (RORγ): 77 nM
HLM (% Qh) [1]: <24 % Qh

CC[C@@H](C)n1c(=O)c(NCc2ccc(S(C)(=O)=O)nc2)nc2c(C)nc(-c3c(C)ncnc3C3CC3)nc21 [Example 72]
IC50 (RORγ): 205 nM
HLM (% Qh) [1]: <24 % Qh

CC[C@@H](C)n1c(=O)c(NCc2ccc(S(C)(=O)=O)cn2)nc2c(CF)nc(-c3c(C)ncnc3C3CC3)nc21 [Example 54]
IC50 (RORγ): 225 nM
HLM (% Qh) [1]: 41 % Qh

COc1ncnc(C2CC2)c1-c1nc(C)c2nc(NCc3ccc(S(N)(=O)=O)cn3)c(=O)n([C@@H](C)C(F)(F)F)c2n1 [Example 95]
IC50 (RORγ): 150 nM
HLM (% Qh) [1]: 40 % Qh

CC[C@H](C)n1c(=O)c(NCc2ccc(S(=O)(=O)CC)cn2)nc2c(C)nc(-c3c(OC)ncnc3C3CC3)nc21 [Example 58]
IC50 (RORγ): 71 nM
HLM (% Qh) [1]: <24 % Qh

CC[C@@H](C)n1c(=O)c(NCc2ncc(S(=O)(=O)CC)cn2)nc2c(C)nc(-c3c(OC)ncnc3C3CC3)nc21 [Example 4]
IC50 (RORγ): 180 nM
HLM (% Qh) [1]: <24 % Qh

CC[C@H](C)n1c(=O)c(NCc2ccc(S(=O)(=O)CC)nc2)nc2c(C)nc(-c3c(OC)ncnc3C3CC3)nc21 [Example 63]
IC50 (RORγ): 100 nM
HLM (% Qh) [1]: <24 % Qh

COc1ncnc(C2CC2)c1-c1nc(C)c2nc(NCc3ccc(S(C)(=O)=O)cn3)c(=O)n([C@@H](C)C3CC3)c2n1 [Example 5]
IC50 (RORγ): 73 nM
HLM (% Qh) [1]: 28 % Qh

CC[C@H](C)n1c(=O)c(NCc2ncc(S(=O)(=O)CC)cn2)nc2c(C)nc(-c3c(C)ncnc3C3CC3)nc21 [Example 16]
IC50 (RORγ): 113 nM
HLM (% Qh) [1]: <24 % Qh

CC[C@@H](C)n1c(=O)c(NCc2ncc(S(C)(=O)=O)cn2)nc2c(C)nc(-c3c(C)ncnc3C3CC3)nc21 [Example 57]
IC50 (RORγ): 500 nM
HLM (% Qh) [1]: <24 % Qh

Cc1ncnc(C2CC2)c1-c1nc(C)c2nc(NCc3ccc(S(C)(=O)=O)nc3)c(=O)n([C@@H](C)C3CC3)c2n1 [Example 7]
IC50 (RORγ): 70 nM
HLM (% Qh) [1]: 33 % Qh

CCS(=O)(=O)c1cnc(CNc2nc3c(C)nc(-c4c(C)ncnc4C4CC4)nc3n(C(C)C(F)F)c2=O)nc1 (stereo not shown) [Example 89]
IC50 (RORγ): 225 nM
HLM (% Qh) [1]: <24 % Qh

CCS(=O)(=O)c1cnc(CNc2nc3c(C)nc(-c4c(OC)ncnc4C4CC4)nc3n([C@@H](C)C3CC3)c2=O)nc1 [Example 10]
IC50 (RORγ): 97 nM
HLM (% Qh) [1]: 27 % Qh

CCS(=O)(=O)c1ccc(CNc2nc3c(C)nc(-c4c(OC)ncnc4C4CC4)nc3n(C(C)C)c2=O)nc1 [Example 77]
IC50 (RORγ): 680 nM
HLM (% Qh) [1]: <24 % Qh

CCS(=N)(=O)c1ccc(CNc2nc3c(C)nc(-c4c(C)ncnc4C4CC4)nc3n([C@@H](C)C3CC3)c2=O)nc1 (single isomer, unassigned) [Example 42a]
IC50 (RORγ): 270 nM
HLM (% Qh) [1]: <24 % Qh

Cc1ncnc(C2CC2)c1-c1nc(C)c2nc(NCc3ccc(S(C)(=O)=O)cn3)c(=O)n([C@@H](C#N)C(C)C)c2n1 [Example 31]
IC50 (RORγ): 850 nM
HLM (% Qh) [1]: 55 % Qh

Cc1ncnc(C2CC2)c1-c1nc(C)c2nc(NCc3ccc(S(C)(=N)=O)cc3)c(=O)n([C@@H](C)C3CC3)c2n1 (single isomer, unassigned) [Example 27a]
IC50 (RORγ): 210 nM
HLM (% Qh) [1]: <24 % Qh

CC[C@H](C)n1c(=O)c(NCc2ccc(S(=O)(=O)CC)cn2)nc2c(C)nc(-c3c(C)ncnc3C3CC3)nc21 [Example 60]
IC50 (RORγ): 80 nM
HLM (% Qh) [1]: <24 % Qh

CC[C@@H](C)n1c(=O)c(NCC2CCN(S(=O)(=O)CC)CC2)nc2c(C)nc(-c3c(C)ncnc3C3CC3)nc21 [Example 24]
IC50 (RORγ): 120 nM
HLM (% Qh) [1]: 69 % Qh

CCS(=O)(=O)c1ccc(CNc2nc3c(C)nc(-c4c(C)ncnc4C4CC4)nc3n([C@@H](C)C(F)(F)F)c2=O)nc1 [Example 79]
IC50 (RORγ): 130 nM
HLM (% Qh) [1]: <24 % Qh

Cc1ncnc(C2CC2)c1-c1nc(C)c2nc(NCc3ccc(S(C)(=N)=O)cc3)c(=O)n([C@@H](C)C3CC3)c2n1 (single isomer, unassigned) [Example 27b]
IC50 (RORγ): 265 nM
HLM (% Qh) [1]: <24 % Qh

Cc1ncnc(C2CC2)c1-c1nc(C)c2nc(NCc3ccc(S(C)(=N)=O)cc3)c(=O)n([C@@H](C)C(F)(F)F)c2n1 (single isomer, unassigned) [Example 91a]
IC50 (RORγ): 295 nM
HLM (% Qh) [1]: <24 % Qh

CC[C@@H](C)n1c(=O)c(NCc2ccc(S(=N)(=O)CC)cc2)nc2c(C)nc(-c3c(OC)ncnc3C3CC3)nc21 (single isomer, unassigned) [Example 29a]
IC50 (RORγ): 235 nM
HLM (% Qh) [1]: 73 % Qh

CCS(=O)(=O)c1ccc(CNc2nc3c(C)nc(-c4c(C)ncnc4C4CC4)nc3n([C@@H](C)C3CC3)c2=O)nc1 [Example 68]
HLM (% Qh) [1]: <24 % Qh
